From patent US11591292B2, “Preparation of cationic surfactants” (Saudi Arabian Oil Company, priority 2020, dated 2023)

Tests used:
Assay type in all cases: physicochemical
[1] = Compatibility of surfactants in seawater; set-up: key: A = clear; B = phase separation; conditions: in seawater (total salinity 57,670 ppm)
Source text: (§1) The properties of the surfactants in seawater including compatibility, critical micelle concentration (CMC) and the interfacial tension were investigated.

[2] = Critical micelle concentration (CMC) in seawater
Source text: as §1

[3] = Interfacial tension (IFT) of surfactants in seawater; conditions: for IFT 500 mg/L: surfactant 500 mg/L; for IFT 1000 mg/L: surfactant 1000 mg/L; for IFT 2000 mg/L: surfactant 2000 mg/L
Source text: as §1

Structure (SMILES) | Compatibility 25° C. [1] | Compatibility 95° C. [1] | CMC [2] [mol/L] | IFT 500 mg/L [3] | IFT 1000 mg/L [3] | IFT 2000 mg/L [3]
CCCCCCCC/C=C\CCCCCCCCCCCC(=O)NCCC[N+](C)(C)CC(O)CO.[Cl-] (stereo not drawn) [C22APDAC, Erucyl amidopropyl-2,3-dihydroxypropyl ammonium chloride] | A | A | 9.58e-06 | 2.11 × 10^−4 mN/m | 1.21 × 10^−4 mN/m | 1.1 × 10^−3 mN/m
CCCCCCCC/C=C\CCCCCCCCCCCC(=O)NCCC[N+](C)(C)CC(O)COC(C)=O.[Cl-] (stereo not drawn) [C22APHAAC, erucyl amidopropyl-2-hydroxy-3-acetoxypropyl ammonium chloride] | A | B | 1.09e-05 | 1.11 mN/m | 4.83 × 10^−3 mN/m | 2.37 × 10^−3 mN/m
CCCCCCCC/C=C\CCCCCCCCCCCC(=O)NCCC[N+](C)(C)CC(O)COC(=O)C(F)(F)F.[Cl-] (stereo not drawn) [C22APHFAC, Erucyl amidopropyl-2-hydroxy-3-(2,2,2 trifluoroacetoxy) propyl ammonium chloride] | A | B | 1.08e-05 | 0.31 mN/m | 1.87 × 10^−2 mN/m | 7.12 × 10^−3 mN/m
CCCCCCCC/C=C\CCCCCCCCCCCC(=O)NCCC[N+](C)(C)CC(O)COC(=O)CC.[Cl-] (stereo not drawn) [C22APHPAC, Erucyl amidopropyl-2-hydroxy-3-propoionyloxy propyl ammonium chloride] | A | B | 1.25e-05 | 5.7 × 10^−2 mN/m | 7 × 10^−3 mN/m | 4.2 × 10^−2 mN/m
